# Measured values reported in patent US8133847B2, “Pyrido[2,3-B]pyrazine derivatives useful as herbicidal compounds” (Syngenta Limited, priority 2006, dated 2012).
# Key:
# Test in all cases: Example B1 herbicidal action, post-emergence, 96-cell seed trays, climatic chamber
# Format in all cases: in vivo
# [1] = system: Amaranthus retroflexus (AMARE); conditions: Application post-emergence, 1000 mg/l spray equivalent to 1000 g/ha, evaluated after 9 days
# Method: (§1) Seeds of a variety of test species were sown in sterilised standard soil in seed trays each having 96 cells. After cultivation for 8 to 9 days cultivation (post-emergence) under controlled conditions in a climatic chamber (cultivation at 23/17° C., day/night; 13 hours light; 50-60% humidity), the plants were treated with an aqueous spray solution of 1000 mg/l of the active ingredient dissolved in 10% DMSO (dimethyl sulfoxide, CAS RN 67-68-5) as a solvent, equivalent to 1000 g/ha. The plants were grown in the climatic chamber after application at (24/19° C., day/night; 13 hours light; 50-60% humidity) and watered twice daily. After 9 days until the test was evaluated (100=total damage to plant, 0=no damage to plant)
# [2] = system: Solanum nigrum (SOLNI); conditions: Application post-emergence, 1000 mg/l spray equivalent to 1000 g/ha, evaluated after 9 days (100=total damage to plant, 0=no damage to plant)
# Method: as §1
# [3] = system: Stellaria media (STEME); conditions: Application post-emergence, 1000 mg/l spray equivalent to 1000 g/ha, evaluated after 9 days (100=total damage to plant, 0=no damage to plant)
# Method: as §1
# [4] = system: Nasturtium officinale (NAAOF); parameters: scale not given here; conditions: Application post-emergence, 1000 mg/l spray equivalent to 1000 g/ha, evaluated after 9 days (100=total damage to plant, 0=no damage to plant)
# Method: as §1
Compound,"damage to plant, Amaranthus retroflexus (AMARE) [1]","damage to plant, Solanum nigrum (SOLNI) [2]","damage to plant, Stellaria media (STEME) [3]","damage to plant, Nasturtium officinale (NAAOF) [4]"
C=CCn1c(=O)c(-c2ccccc2OC(F)(F)F)c(OC(=O)C(C)(C)C)c2nccnc21 [Compound C25],0,0,2,0
CCn1c(=O)c(-c2c(C)cc(C)cc2C)c(OC(=O)C(C)C)c2nccnc21 [Compound C103],4,7,7,6
COCCn1c(=O)c(-c2ccc(Cl)cc2Cl)c(OC(C)=O)c2nccnc21 [Compound C9],0,3,2,2
O=c1[nH]c2nccnc2c(O)c1-c1ccccc1F [Compound A15],0,0,0,2
Cc1cc(C)c(-c2c(O)c3nccnc3[nH]c2=O)c(C)c1 [Compound A30],7,0,4,3
C=CCCCCCCCCC(=O)Oc1c(-c2c(F)ccc(F)c2Cl)c(=O)n(C)c2nccnc12 [Compound C101],7,4,2,3
CC(=O)Oc1c(-c2ccccc2OC(F)(F)F)c(=O)[nH]c2nccnc12 [Compound B8],1,2,3,3
O=c1[nH]c2nccnc2c(O)c1-c1ccc2ccccc2c1 [Compound A29],2,2,3,0
O=c1[nH]c2nccnc2c(O)c1-c1c(Cl)cccc1C(F)(F)F [Compound A31],5,0,3,3
Cn1c(=O)c(-c2c(Cl)cccc2Cl)c(OC(=O)C(C)(C)C)c2nccnc21 [Compound C37],5,6,5,7
C=CCn1c(=O)c(-c2c(Cl)cccc2Cl)c(OC(=O)OCC)c2nccnc21 [Compound C39],7,7,6,6
Cn1c(=O)c(-c2ccccc2C(F)(F)F)c(OC(=O)C(C)(C)C)c2nccnc21 [Compound C109],3,6,0,4
CCCCn1c(=O)c(-c2c(Cl)cccc2Cl)c(OC(C)=O)c2nccnc21 [Compound C40],3,2,2,2
CCn1c(=O)c(-c2ccc(F)cc2Cl)c(OC(=O)C(C)C)c2nccnc21 [Compound C3],0,5,6,7
CCc1cc(C)cc(CC)c1-c1c(OC(=O)C(C)C)c2nccnc2n(C)c1=O [Compound C65],4,3,6,7
Cn1c(=O)c(-c2c(F)ccc(F)c2Cl)c(OC(=O)c2cccs2)c2nccnc21 [Compound C91],7,8,8,4
CCC(=O)Oc1c(-c2ccc(F)cc2Cl)c(=O)[nH]c2nccnc12 [Compound B3],8,0,2,0
CCn1c(=O)c(-c2ccccc2OC(F)(F)F)c(O)c2nccnc21 [Compound D5],3,–,6,7
